Series [1] is described as follows: Chemical extractability from nanocapsules by household solvents.
Series [2] can be described thus: Thermal stability of thebaine (TGA, heating). In kind it is physicochemical.
The nature of series [3]: Dissolution in simulated gastric fluid. As to conditions: after 12 and 24 h.
Series [4] can be described thus: Equilibrium solubility of thebaine in ethanol. In kind it is physicochemical. The settings on record: organic solvent or mixture, thermodynamic from solid. The method, then: Chemical extractability of thebaine, a model opioid drug, as a mixture with a non-gel forming excipient, Avicel pH 102, or selected gel-forming polymers, was tested using absolute ethanol. […] Physical mixtures of thebaine (600 μg) with 150 mg Avicel or Avicel with selected polymers (80 mg XG, 20 mg XG+30 mg HEC, or 20 mg XG+60 mg CS) mg) were extracted in 1 mL of absolute ethanol for 1 h. Free thebaine without any excipients was also tested for comparison.

In brackets after ≈: the same amount, converted by molar mass.

As usually defined, the solubility (thermodynamic) is the concentration in solution at equilibrium with solid. `COC1=CC=C2[C@H]3Cc4ccc(OC)c5c4[C@@]2(CCN3C)[C@H]1O5` [thebaine]: the “solubility in household solvents” value in series [1] (all tested solvents except for 0.9% NaCl and 0.1 M NaOH) is recorded as “soluble”. Also, the “dissolution in household solvents” value in series [1] (most solvents at equivalent concentrations) is on record as “dissolves completely”. The “drug that withstood heating” value in series [2] (180° C. for 10 min, drug alone) is reported as 86.9%. For the same compound, in series [2] (thermogravimetric analysis), the “temperature at which decomposition began (TGA)” value was “around 200 °C”. Also, the “stability in SGF” value in series [3] is recorded as “degraded”. In addition, the solubility (thermodynamic) at 24 h in series [4] (in 24 h) came out at 10.4 mg/mL (≈ 33.4 mM). Also, in series [4] (in 72 h), the thermodynamic solubility at 72 h came out at 10.5 mg/mL (≈ 33.7 mM).

The record behind these values is patent publication US20250275928A1, “NANOPARTICLE-BASED ABUSE-DETERRENT FORMULATIONS AND METHODS OF MAKING AND USING” (Purdue Research Foundation, priority 2021, published 2025).
